Source: PubChem BioAssay AID2060483 (Molecular Pharmacology Branch, DTP, NCI, 2025)

System: K24384-001-R-PDC complex spheroids, viability
Assay: Anticancer human tumor K24384-001-R-PDC patient-derived pancreatic adenocarcinoma cell line growth inhibition [GQUAD]
Conditions: for IC50: curve of first compound; for viability, T/C: stronger effect = lower value
From the text: DNA G-quadruplex Stabilizer Agents in Combinations in Complex Spheroids
A high-throughput screen of multi-cell type tumor spheroids was designed to identify active combinations of DNA G-quadruplex stabilizer agents and targeted small molecules. Complex spheroids include a stromal component modeled by human endothelial cells (HUVEC) and fibroblasts modeled by human mesenchymal stem cells (MSCs). The concentration ranges selected for each drug and investigational agent were based upon clinically achievable concentrations if the clinical Cmax of the agent was known.
Compounds. The drugs and investigational agents: pidnarulex (CX-5461; NSC782164), APTO-253 (NSC789042), BRACO-19 (NSC847499), peposertib (NSC802822), ceralasertib (NSC780249), elimusertib (NSC800525), camonsertib (NSC841442), AZD-1390 (NSC803789), olaparib (NSC753686), talazoparib (NSC767125), ART-558 (NSC835418), sotorasib (NSC818433), MRTX-1133 (NSC836407), SN-38 (NSC673596), topotecan (NSC609699), etoposide (NSC141540), doxorubicin (NSC123127), gemcitabine (NSC613327), 5-fluorouracil (NSC19893), paclitaxel (NSC125973), vemurafenib (NSC761431), panobinostat (NSC761190), R-306465 (JNJ-16241199; NSC773264), adavosertib (NSC754352), TP-3654 (NSC805149), carboplatin (NSC241240), KSQ-4279 (NSC840948), and staurosporine (NSC755774) were obtained from the National Cancer Institute (NCI) Developmental Therapeutics Program Chemical Repository (34). The FDA-approved anticancer drug set is available from the NCI Developmental Therapeutics Program. […] The stock solutions were prepared in dimethyl sulfoxide (DMSO, Sigma-Aldrich, St. Louis, MO, cat. D2650) at 800-fold the tested concentration and stored at -70 degrees C prior to their use. All drugs and investigational agents were tested over a range starting from a high concentration at or near the clinical Cmax and decreasing in half-log increments. If the clinical Cmax for an agent had not been determined, the highest concentration tested was 10 microM.
2.3 Cell Culture. All cells were maintained in an incubator at 37 degrees C and 5% CO2 with 95% humidity. The PDC lines were cultured according to standard operating procedures established by the NCI PDMR. All PDCs were thawed and cultured in Matrigel-coated flasks prepared with a working solution of 1X Ham's F-12 nutrient mix, without supplementation (Invitrogen, cat. 11765054), 100 U/mL penicillin-streptomycin (Invitrogen, cat. 15140122), and 2.5% Matrigel (Corning Inc., cat. 354248) for the first three passages. The 857933-349-R-J2-PDC line was cultured in 6C/Colon 1B media, which includes advanced DMEM/F-12 (Thermo Fisher Scientific, cat. 12634028), 10 mM HEPES (Thermo Fisher Scientific, cat. 15630080), 1X GlutaMAX supplement (Thermo Fisher Scientific, cat. 35050061), 0.1 mg/mL primocin (InvivoGen, cat. ant-pm-2), 10% defined fetal bovine serum, heat inactivated (HyClone Laboratories Inc., cat. SH30070.03HI), 50% L-WRN conditioned media (ATCC, cat. CRL-3276), 1.25 mM N-Acetyl-L-cysteine (Sigma-Aldrich, cat. A9165), 10 mM nicotinamide (Sigma-Aldrich, cat. N0636), 1X B-27 supplement (Thermo Fisher Scientific, cat. 17504044), 1X N-2 supplement (Thermo Fisher Scientific, cat. 17502048), 10 microM Y-27632 dihydrochloride (Tocris Bioscience, cat. 1254), and 50 ng/mL human EGF recombinant protein (Thermo Fisher Scientific, cat. PHG0311). The 485176-168-R4-J1-PDC line was cultured in Panc media, which includes all 6C/Colon 1B media components plus 100 ng/mL human FGF-10 (Thermo Fisher Scientific, cat. 100-26), 500 nM SB-431542 (Selleckchem, cat. S1067), and gastrin (Tocris, cat. 3006).
[…]

[1] = second compound 0.0316 µM, first compound 0.0316 µM
[2] = second compound 0.0316 µM, first compound 0.316 µM
[3] = second compound 0.1 µM, first compound 0.0316 µM
[4] = second compound 0.1 µM, first compound 0.316 µM
[5] = second compound 0.316 µM, first compound 0.0316 µM
[6] = second compound 0.316 µM, first compound 0.316 µM
[7] = second compound 1 µM, first compound 0.0316 µM
[8] = second compound 1 µM, first compound 0.316 µM
[9] = second compound 3.16 µM, first compound 0.0316 µM
[10] = second compound 3.16 µM, first compound 0.316 µM
[11] = second compound 10 µM, first compound 0.0316 µM
[12] = second compound 10 µM, first compound 0.316 µM
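Note: spheroids exposed to compounds for seven days.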

## Cn1ncnc1[C@H]1c2n[nH]c(=O)c3cc(F)cc(c23)N[C@@H]1c1ccc(F)cc1 + Cc1[nH]c2ccc(F)cc2c1-c1nc2c3cccnc3c3ncccc3c2[nH]1
Second compound 0.0316 µM
  IC50: > 0.316 µM
Second compound 0.1 µM
  IC50: > 0.316 µM
Second compound 0.316 µM
  IC50: > 0.316 µM
Second compound 1 µM
  IC50: > 0.316 µM
Second compound 3.16 µM
  IC50: > 0.316 µM
Second compound 10 µM
  IC50: > 0.316 µM
Second compound 0.0316 µM, first compound 0.000999 µM
  viability, T/C: 97.8%
Second compound 0.0316 µM, first compound 0.00316 µM
  viability, T/C: 94.4%
Second compound 0.0316 µM, first compound 0.00999 µM
  viability, T/C: 99.6%
[1]
  viability, T/C: 92%
Second compound 0.0316 µM, first compound 0.0999 µM
  viability, T/C: 102%
[2]
  viability, T/C: 90.4%
Second compound 0.1 µM, first compound 0.000999 µM
  viability, T/C: 87.9%
Second compound 0.1 µM, first compound 0.00316 µM
  viability, T/C: 98.5%
Second compound 0.1 µM, first compound 0.00999 µM
  viability, T/C: 90.3%
[3]
  viability, T/C: 91%
Second compound 0.1 µM, first compound 0.0999 µM
  viability, T/C: 97.1%
[4]
  viability, T/C: 93.2%
Second compound 0.316 µM, first compound 0.000999 µM
  viability, T/C: 86.7%
Second compound 0.316 µM, first compound 0.00316 µM
  viability, T/C: 103%
Second compound 0.316 µM, first compound 0.00999 µM
  viability, T/C: 93%
[5]
  viability, T/C: 89.5%
Second compound 0.316 µM, first compound 0.0999 µM
  viability, T/C: 93%
[6]
  viability, T/C: 77.9%
Second compound 1 µM, first compound 0.000999 µM
  viability, T/C: 95.3%
Second compound 1 µM, first compound 0.00316 µM
  viability, T/C: 100%
Second compound 1 µM, first compound 0.00999 µM
  viability, T/C: 95.3%
[7]
  viability, T/C: 81.8%
Second compound 1 µM, first compound 0.0999 µM
  viability, T/C: 85.9%
[8]
  viability, T/C: 80.8%
Second compound 3.16 µM, first compound 0.000999 µM
  viability, T/C: 74%
Second compound 3.16 µM, first compound 0.00316 µM
  viability, T/C: 92.9%
Second compound 3.16 µM, first compound 0.00999 µM
  viability, T/C: 72.3%
[9]
  viability, T/C: 73.5%
Second compound 3.16 µM, first compound 0.0999 µM
  viability, T/C: 72.4%
[10]
  viability, T/C: 67.3%
Second compound 10 µM, first compound 0.000999 µM
  viability, T/C: 64.3%
Second compound 10 µM, first compound 0.00316 µM
  viability, T/C: 79%
Second compound 10 µM, first compound 0.00999 µM
  viability, T/C: 57.2%
[11]
  viability, T/C: 76.1%
Second compound 10 µM, first compound 0.0999 µM
  viability, T/C: 71.2%
[12]
  viability, T/C: 60.4%

## Cc1cccc(N(C)C(=O)C2C(O)CCN2c2nc(C)cc(C(F)(F)F)c2C#N)c1 (centres undefined) + CN(C)c1ccc(Nc2c3ccc(NC(=O)CCN4CCCC4)cc3nc3cc(NC(=O)CCN4CCCC4)ccc23)cc1
Second compound 0.0316 µM
  IC50: > 10 µM
Second compound 0.1 µM
  IC50: > 10 µM
Second compound 0.316 µM
  IC50: > 10 µM
Second compound 1 µM
  IC50: > 10 µM
Second compound 3.16 µM
  IC50: > 10 µM
Second compound 10 µM
  IC50: 3.01 µM
[1]
  viability, T/C: 95.3%
Second compound 0.0316 µM, first compound 0.1 µM
  viability, T/C: 87.9%
[2]
  viability, T/C: 91.3%
Second compound 0.0316 µM, first compound 1 µM
  viability, T/C: 90.6%
Second compound 0.0316 µM, first compound 3.16 µM
  viability, T/C: 109%
Second compound 0.0316 µM, first compound 10 µM
  viability, T/C: 111%
[3]
  viability, T/C: 101%
Second compound 0.1 µM, first compound 0.1 µM
  viability, T/C: 110%
[4]
  viability, T/C: 106%
Second compound 0.1 µM, first compound 1 µM
  viability, T/C: 102%
Second compound 0.1 µM, first compound 3.16 µM
  viability, T/C: 100%
Second compound 0.1 µM, first compound 10 µM
  viability, T/C: 97.6%
[5]
  viability, T/C: 90.2%
Second compound 0.316 µM, first compound 0.1 µM
  viability, T/C: 81.9%
[6]
  viability, T/C: 85.4%
Second compound 0.316 µM, first compound 1 µM
  viability, T/C: 87.7%
Second compound 0.316 µM, first compound 3.16 µM
  viability, T/C: 102%
Second compound 0.316 µM, first compound 10 µM
  viability, T/C: 95.3%
[7]
  viability, T/C: 98%
Second compound 1 µM, first compound 0.1 µM
  viability, T/C: 83.6%
[8]
  viability, T/C: 94.7%
Second compound 1 µM, first compound 1 µM
  viability, T/C: 107%
Second compound 1 µM, first compound 3.16 µM
  viability, T/C: 91.8%
Second compound 1 µM, first compound 10 µM
  viability, T/C: 94.3%
[9]
  viability, T/C: 93%
Second compound 3.16 µM, first compound 0.1 µM
  viability, T/C: 86.2%
[10]
  viability, T/C: 80.4%
Second compound 3.16 µM, first compound 1 µM
  viability, T/C: 104%
Second compound 3.16 µM, first compound 3.16 µM
  viability, T/C: 117%
Second compound 3.16 µM, first compound 10 µM
  viability, T/C: 74.4%
[11]
  viability, T/C: 89.7%
Second compound 10 µM, first compound 0.1 µM
  viability, T/C: 79.8%
[12]
  viability, T/C: 76.2%
Second compound 10 µM, first compound 1 µM
  viability, T/C: 61.8%
Second compound 10 µM, first compound 3.16 µM
  viability, T/C: 51.1%
Second compound 10 µM, first compound 10 µM
  viability, T/C: 31.9%
